Article PMC6273913, “New α-Methylene-γ-Butyrolactone Derivatives as Potential Fungicidal Agents: Design, Synthesis and Antifungal Activities” (Molecules, 2016)
Read-outs that look alike come from different tables or passages of the source.

How the values were obtained:
[1] = tested on: B. cinerea; assay: Spore germination assay, fungicidal activity against B. cinerea; type: cell-based, Botrytis cinerea; conditions: Botrytis cinerea, in vitro, n = 3
Experimental: (§1) The fungal pathogens C. lagenarium and B. cinerea was provided by the Agricultural Culture Collection of China (Yangling, Shaanxi, China). C. lagenarium was cultured for 2 weeks at 25 ± 1 °C on potato dextrose agar (PDA) while B. cinerea was cultured at 20 °C on the same medium after being retrieved from the storage tube. Plates were flooded with sterile distilled water, and then conidia were scraped with a glass rod. Mycelial debris was removed by filtration. The spores were harvested and suspended in sterile distilled water containing 0.1% (v/v) Tween 20. The concentration of the spore suspension was adjusted to 1.0 × 10^6 spores/mL with sterilized distilled water following.
(§2) The tested samples (10.0 mg) dissolved in acetone (0.1 mL) were diluted with sterile distilled water to prepare 10.0 mL stock solution, which was further diluted to prepare test solutions in which the final concentration of acetone was <1% (v/v). A series of concentrations of tested samples and one control (1% acetone with sterile distilled water) were separately tested for spore germination of C. lagenarium or B. cinerea. The samples were inoculated with spore suspension of C. lagenarium or B. cinerea containing 1.0 × 10^6 spores/mL. Aliquots of 10 μL of prepared spore suspension were placed on separate glass slides in triplicate. Slides containing the spores were incubated in a moisture chamber at 25 °C for 6~8 h. Each slide was then observed under the microscope for spore germination. Spores were considered to have germinated if the length of the germ tube was at least half the length of the spore. Afterward, spore germination was stopped by applying a drop of lactophenol-cotton blue to the inoculation sites on plates. The numbers of generated spores were counted under a microscope (Olympus BX61, Tokyo, Japan), and the percentage of germinated spores was calculated. Chlorothalonil was used as the positive control.

[2] = tested on: HepG2 cell line; assay: Cytotoxic activity against human tumor cells line (HepG2); type: cell-based
[3] = tested on: C. lagenarium; assay: Spore germination assay, fungicidal activity against C. lagenarium; type: cell-based, Colletotrichum lagenarium; conditions: Colletotrichum orbiculare
Experimental: as §1, §2

[4] = Table 1, from IC50 in μM, read-out: pIC50, C. lagenarium (converted)
[5] = Table 6, read-out: IC50 (μM) (against C. lagenarium)
[6] = in vitro, spore germination, n = 3, read-out: IC50, C. lagenarium
[7] = Table 2, fungicidal activity against C. lagenarium used for QSAR, read-out: pIC50 (converted)
[8] = Table 4, experimental, C. lagenarium, read-out: Exp. pIC50 (converted)

| melting point [°C] | Structure (SMILES) | IC50 [1] [µM] | IC50 [2] [µM] | IC50 [3, 4] [µM] | IC50 [3, 5] [µM] | IC50 [3, 6] [µM] | IC50 [3, 7] [µM] | IC50 [3, 8] [µM] |
| --- | --- | --- | --- | --- | --- | --- | --- | --- |
| 168.8 to 169.2 | C=C1CC(c2ccc(OC(=O)c3cccc(Cl)c3)cc2)OC1=O (centres unmarked) [Compound 4b, 4-[4-(3-Chlorobenzoyloxy)phenyl]-2-methylenebutyrolactone] | 22.1 | 22.4 | 8.99 | 8.99 | 8.99 | 8.99 | 8.99 |
| 176.5 to 176.8 | C=C1CC(c2ccc(OC(=O)c3cccc(Br)c3)cc2)OC1=O (centres unmarked) [Compound 4e, 4-[4-(3-Bromobenzoyloxy)phenyl]-2-methylenebutyrolactone] | 30.2 | 21.7 | 8.77 | 8.76 | 8.76 | 8.77 | 8.77 |
| 223.3 to 223.7 | C=C1CC(c2ccc(OC(=O)c3ccccc3)cc2)OC1=O (centres unmarked) [Compound 4i, 4-(4-Benzoyloxyphenyl)-2-methylenebutyrolactone] | 112 | 5.3 | 95.3 | 95.4 | 95.4 | 95.3 | 95.3 |
| 186.2 to 186.6 | C=C1CC(c2ccc(OC(=O)c3cccc(C)c3)cc2)OC1=O (centres unmarked) [Compound 4k, 4-[4-(3-Methylbenzoyloxy)phenyl]-2-methylenebutyrolactone] | 193 | 28.5 | 178 | 178 | 178 | 178 | 178 |
| 189.7 to 190.4 | C=C1CC(c2ccccc2OC(=O)c2cccc(Br)c2)OC1=O (centres unmarked) [Compound 5d, 4-[2-(3-Bromobenzoyloxy)phenyl]-2-methylenebutyrolactone] | 22.9 | 35.6 | 13.4 | 13.4 | 13.4 | 13.4 | 13.4 |
| 179.3 to 179.9 | C=C1CC(c2ccccc2OC(=O)c2cccc(C)c2)OC1=O (centres unmarked) [Compound 5i, 4-[2-(3-Methylbenzoyloxy)phenyl]-2-methylenebutyrolactone] | 194 | 85.2 | 182 | 182 | 182 | 182 | 182 |
| 180.3 to 180.8 | C=C1CC(c2ccccc2OC(=O)c2cccc(OC)c2)OC1=O (centres unmarked) [Compound 5l, 4-[2-(3-Methoxylbenzoyloxy)phenyl]-2-methylenebutyrolactone] | 303 | 29 | 284 | 284 | 284 | 284 | 284 |
| 205.7 to 206.4 | C=C1CC(c2cccc(OC(=O)c3cccc(Cl)c3)c2)OC1=O (centres unmarked) [Compound 6a, 4-[3-(3-Chlorobenzoyloxy)phenyl]-2-methylenebutyrolactone] | 23.3 | 30.2 | 7.67 | 7.68 | 7.68 | 7.67 | 7.67 |
| 178.6 to 178.9 | C=C1CC(c2cccc(OC(=O)c3cccc(Br)c3)c2)OC1=O (centres unmarked) [Compound 6d, 4-[3-(3-Bromobenzoyloxy)phenyl]-2-methylenebutyrolactone] | 26 | 20.9 | 8.17 | 8.17 | 8.17 | 8.17 | 8.17 |
| 177.6 to 178.2 | C=C1CC(c2cccc(OC(=O)c3cccc(C)c3)c2)OC1=O (centres unmarked) [Compound 6h, 4-[3-(3-Methylbenzoyloxy)phenyl]-2-methylenebutyrolactone] | 148 | – | 126 | – | 126 | 126 | 126 |
| 168.5 to 168.9 | C=C1CC(c2cccc(OC(=O)c3ccc(C)cc3)c2)OC1=O (centres unmarked) [Compound 6i, 4-[3-(4-Methylbenzoyloxy)phenyl]-2-methylenebutyrolactone] | 164 | – | 136 | – | 137 | 136 | 136 |
| 172.3 to 172.8 | C=C1CC(c2cccc(OC(=O)c3ccccc3OC)c2)OC1=O (centres unmarked) [Compound 6j, 4-[3-(2-Methoxylbenzoyloxy)phenyl]-2-methylenebutyrolactone] | 196 | – | 162 | – | 162 | 162 | 162 |
| 183.7 to 184.2 | C=C1CC(c2cccc(OC(=O)c3cccc(OC)c3)c2)OC1=O (centres unmarked) [Compound 6k, 4-[3-(3-Methoxybenzoyloxy)phenyl]-2-methylenebutyrolactone] | 161 | – | 136 | – | 136 | 136 | 136 |

More lines, now with the values behind:

| Structure (SMILES) | melting point [°C] | IC50 [1] [µM] | IC50 [2] [µM] | IC50 [3, 4] [µM] | IC50 [3, 5] [µM] | IC50 [3, 6] [µM] | IC50 [3, 7] [µM] | IC50 [3, 8] [µM] |
| --- | --- | --- | --- | --- | --- | --- | --- | --- |
| C=C1CC(c2ccc(O)cc2)OC1=O (centres unmarked) [Compound 4, 4-(4-Hydroxyphenyl)-2-methylenebutyrolactone] | 79 to 81 | 208 | 23.3 | 161 | 161 | 161 | – | – |
| C=C1CC(c2ccc(OC(=O)c3cccc(C#N)c3)cc2)OC1=O (centres unmarked) [Compound 4g, 4-[4-(3-Benzonitrile)phenyl]-2-methylenebutyrolactone] | – | 60.6 | 18.3 | 52.8 | 52.9 | 52.9 | 52.8 | 52.8 |
| C=C1CC(c2ccc(OC(=O)c3ccc(OC)cc3)cc2)OC1=O (centres unmarked) [Compound 4o, 4-[4-(4-Methoxylbenzoyloxy)phenyl]-2-methylenebutyrolactone] | 184.5 to 185.2 | 231 | 25 | 219 | 219 | 219 | 219 | 219 |
| C=C1CC(c2ccc(OC(=O)CC)cc2)OC1=O (centres unmarked) [Compound 4p, 4-[4-(Propionyloxy)phenyl]-2-methylenebutyrolactone] | – | 237 | 19.5 | 207 | 207 | 207 | 207 | 207 |
| C=C1CC(c2ccc(OC(=O)C=Cc3ccc(O)c(OC)c3)cc2)OC1=O (centres unmarked) [Compound 4q] | – | 21.5 | 27.3 | 8.93 | 8.93 | 8.93 | – | 8.93 |
| C=C1CC(c2ccccc2OC(=O)c2cccc(Cl)c2)OC1=O (centres unmarked) [Compound 5a, 4-[2-(3-Chlorobenzoyloxy)phenyl]-2-methylenebutyrolactone] | 201.3 to 201.8 | 30.6 | 28.4 | 16.8 | 16.8 | 16.8 | 16.8 | 16.8 |
| C=C1CC(c2ccccc2OC(=O)CCC)OC1=O (centres unmarked) [Compound 5m, 4-[2-(Butyryloxy)phenyl]-2-methylenebutyrolactone] | – | 206 | 23.8 | 174 | 174 | 174 | 174 | 174 |
| C=C1CC(c2ccccc2OCCC)OC1=O (centres unmarked) [Compound 5p, 4-(2-Propoxylphenyl)-2-methylenebutyrolactone] | – | 525 | > 132 | 499 | 499 | 499 | 499 | 499 |
| C=C1CC(c2ccccc2OCC)OC1=O (centres unmarked) [Compound 5r, 4-(2-Ethoxyphenyl)-2-methylenebutyrolactone] | – | 549 | 38.4 | 520 | 519 | 519 | 520 | 520 |
| C=C1CC(c2cccc(O)c2)OC1=O (centres unmarked) [Compound 6, 4-(3-Hydroxyphenyl)-2-methylenebutyrolactone] | 78 to 79 | 140 | 17.9 | 117 | 117 | 117 | – | – |
| C=C1CC(c2cccc(OC(=O)C=Cc3ccccc3)c2)OC1=O (centres unmarked) [Compound 6n, 4-(3-Cinnamoyloxyphenyl)-2-methylenebutyrolactone] | – | 40.3 | 15.7 | 24.3 | 24.2 | 24.2 | 24.3 | 24.3 |
| C=C1CC(c2cccc(OCCCC)c2)OC1=O (centres unmarked) [Compound 6o, 4-(3-Butoxyphenyl)-2-methylenebutyrolactone] | – | 280 | > 108 | 242 | 242 | 242 | 242 | 242 |
